Experimental data: the supplement of paper PMC13380429
Where a name gives a salt, the structure may show the parent alone.

Assays:
Conditions in all cases: 72 h
[1] = system: Vero E6; experiment: cell viability relative to DMSO; higher = less toxic
[2] = system: U2OS; experiment: as above
[3] = system: Calu-3; experiment: as above
[4] = system: HepG2; experiment: as above
[5] = system: Caco-2; experiment: as above
[6] = system: Vero E6; experiment: relative viability EC50 (midpoint between 100% and the lowest measured viability); higher = less toxic
[7] = system: U2OS; experiment: as above
[8] = system: Calu-3; experiment: as above
[9] = system: HepG2; experiment: as above
[10] = system: Caco-2; experiment: as above
[11] = system: Vero E6; experiment: drug sensitivity score (DSS) for viability; higher = more toxic; extreme values may be limits of the assay
[12] = system: U2OS; experiment: as above
[13] = system: Calu-3; experiment: as above
[14] = system: HepG2; experiment: as above
[15] = system: Caco-2; experiment: as above

Structure (SMILES) | cell viability ([1]; 1 nM) [%] | cell viability ([1]; 10 nM) [%] | cell viability ([1]; 100 nM) [%] | cell viability ([1]; 1000 nM) [%] | cell viability ([1]; 10000 nM) [%] | cell viability ([2]; 1 nM) [%] | cell viability ([2]; 10 nM) [%] | cell viability ([2]; 100 nM) [%] | cell viability ([2]; 1000 nM) [%] | cell viability ([2]; 10000 nM) [%] | cell viability ([3]; 1 nM) [%] | cell viability ([3]; 10 nM) [%] | cell viability ([3]; 100 nM) [%] | cell viability ([3]; 1000 nM) [%] | cell viability ([3]; 10000 nM) [%] | cell viability ([4]; 1 nM) [%] | cell viability ([4]; 10 nM) [%] | cell viability ([4]; 100 nM) [%] | cell viability ([4]; 1000 nM) [%] | cell viability ([4]; 10000 nM) [%] | cell viability ([5]; 1 nM) [%] | cell viability ([5]; 10 nM) [%] | cell viability ([5]; 100 nM) [%] | cell viability ([5]; 1000 nM) [%] | cell viability ([5]; 10000 nM) [%] | relative viability EC50 [6] [µM] | relative viability EC50 [7] [µM] | relative viability EC50 [8] [µM] | relative viability EC50 [9] [µM] | relative viability EC50 [10] [µM] | drug sensitivity score [11] | drug sensitivity score [12] | drug sensitivity score [13] | drug sensitivity score [14] | drug sensitivity score [15]
CC(C)C(=O)Nc1ncc(-c2cc(C(F)F)nn2-c2c(Cl)cccc2Cl)s1 [LIMKi-3] | 106 | 101 | 101 | 92.2 | 96 | 98.1 | 106 | 96.3 | 100 | 88.9 | 88.4 | 92.7 | 98.5 | 118 | 115 | 110 | 98 | 104 | 106 | 110 | 91.4 | 105 | 92.8 | 94.6 | 97.3 | > 10 | > 10 | > 10 | > 10 | > 10 | 0 | 0 | 0 | 0 | 0
COC(=O)C(c1ccccc1)C1CCCCN1 (stereo not given) [METHYLPHENIDATE HYDROCHLORIDE] | 99.7 | 97.3 | 98.5 | 98.9 | 102 | 96.5 | 102 | 92.1 | 95.3 | 98.6 | 100 | 102 | 91.1 | 105 | 101 | 108 | 95.2 | 91.4 | 102 | 99 | 97 | 99.5 | 91.2 | 103 | 104 | > 10 | > 10 | > 10 | > 10 | > 10 | 0 | 0 | 0 | 0 | 0
Cc1cnc(-c2ccccc2C(C)C)nc1NCc1ccc(-n2ccnn2)cc1 [ML323] | 89.6 | 90 | 87.6 | 89.7 | 99.4 | 94.9 | 103 | 95.8 | 102 | 97.9 | 91.6 | 108 | 105 | 97.3 | 110 | 99.1 | 94.2 | 112 | 96.5 | 82.2 | 90.2 | 101 | 92.2 | 95.8 | 81 | > 10 | > 10 | > 10 | > 10 | > 10 | 0 | 0 | 0 | 0.8 | 0.5
NC(=O)CNCCC(c1ccccc1)c1ccccc1 [N20C] | 96.9 | 106 | 98.2 | 98.1 | 97.6 | 106 | 99.4 | 100 | 99.2 | 102 | 109 | 97.5 | 96.6 | 99.4 | 106 | 97.3 | 93.6 | 106 | 111 | 94.9 | 107 | 98.4 | 89.4 | 97.2 | 103 | > 10 | > 10 | > 10 | > 10 | > 10 | 0 | 0 | 0 | 0 | 0
CC(=O)N[C@@H](Cc1ccc(O)cc1)C(=O)O [N-acetyl-tyrosine] | 98.6 | 93.4 | 94.3 | 95 | 101 | 95.3 | 101 | 96.6 | 101 | 107 | 105 | 107 | 108 | 106 | 94.6 | 93.9 | 88.5 | 93.8 | 97.7 | 98.2 | 92.7 | 92.8 | 91 | 95.6 | 102 | > 10 | > 10 | > 10 | > 10 | > 10 | 0 | 0 | 0 | 0 | 0
CN1CCN(c2ccc3ccccc3n2)CC1 [N-methylquipazine] | 97.7 | 97.8 | 95.7 | 97.1 | 111 | 101 | 99.4 | 102 | 96.8 | 98.9 | 106 | 96.2 | 99.2 | 96.4 | 95.1 | 99.4 | 96.1 | 98 | 102 | 111 | 102 | 91.4 | 104 | 97.3 | 102 | > 10 | > 10 | > 10 | > 10 | > 10 | 0 | 0 | 0 | 0 | 0
